The supplement of paper PMC7017272
± gives the standard deviation of the averaged measurements.

Columns and labels:
UT-SCC-24B [1] = test: relative IC50 (midpoint of the fitted curve; maximal inhibition may be below 50%); higher = less potent; conditions: treatment time: 3 days
How it was run: (§1)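 Viability was read with CellTiter-Glo 2.0 luminescence and scaled against vehicle (0.1% DMSO) and cell-killing control wells. The assay used HPV-negative HNSCC cell lines at 500 cells/well in 384-well plates, grown on plastic, on Matrigel or Myogel coatings (500 µg/mL), or embedded in Matrigel or Myogel plus rat collagen I, and treated for 3 days at five 10-fold concentrations. IC50, maximal inhibition and drug sensitivity score were derived from percent-inhibition dose–response curves fitted in the FIMM pipeline.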

UT-SCC-40 [2] = test: as above; conditions: treatment time: 3 days
How it was run: as §1

UT-SCC-44 [3] = test: as above; conditions: treatment time: 3 days
How it was run: as §1

UT-SCC-81 [4] = test: as above; conditions: treatment time: 3 days
How it was run: as §1

UT-SCC-106A = test: as above; conditions: treatment time: 3 days
How it was run: as §1

UT-SCC-42B = test: as above; conditions: treatment time: 3 days
How it was run: as §1

UT-SCC-73 [5] = test: as above; conditions: treatment time: 3 days
How it was run: as §1

UT-SCC-28 [6] = test: as above; conditions: culture condition: plastic 2D (no matrix); treatment time: 3 days
How it was run: as §1

UT-SCC-8 [7] = test: as above; conditions: culture condition: embedded in Matrigel; treatment time: 3 days
How it was run: as §1

UT-SCC-14 = test: as above; conditions: treatment time: 3 days
How it was run: as §1

UT-SCC-42A = test: as above; conditions: culture condition: on top of Matrigel; treatment time: 3 days
How it was run: as §1

UT-SCC-24B [8] = test: drug sensitivity score (DSS); higher = more sensitive; extreme values may be limits of the assay; conditions: treatment time: 3 days
How it was run: as §1

UT-SCC-40 [9] = test: as above; conditions: treatment time: 3 days
How it was run: as §1

UT-SCC-44 [10] = test: as above; conditions: treatment time: 3 days
How it was run: as §1

UT-SCC-81 [11] = test: as above; conditions: treatment time: 3 days
How it was run: as §1

UT-SCC-73 [12] = test: as above; conditions: treatment time: 3 days
How it was run: as §1

UT-SCC-28 [13] = test: as above; conditions: treatment time: 3 days
How it was run: as §1

UT-SCC-8 [14] = test: as above; conditions: treatment time: 3 days
How it was run: as §1

UT-SCC-24A = test: maximal % inhibition of viability relative to DMSO; higher = stronger effect; conditions: treatment time: 3 days
How it was run: as §1

[15] = culture condition: embedded in Matrigel
[16] = culture condition: embedded in Myogel + collagen I
[17] = culture condition: on top of Matrigel
[18] = culture condition: on top of Myogel
[19] = culture condition: plastic 2D (no matrix)

relative IC50 (UT-SCC-24B [1]; [15]): 9.83 nM
relative IC50 (UT-SCC-24B [1]; [16]): 9.92 nM
relative IC50 (UT-SCC-24B [1]; [17]): 11.6 nM
relative IC50 (UT-SCC-24B [1]; [18]): 22.7 nM
relative IC50 (UT-SCC-24B [1]; [19]): 7.62 nM
relative IC50 (UT-SCC-40 [2]; [17]): 3.55 nM
relative IC50 (UT-SCC-40 [2]; [18]): 4.8 nM
relative IC50 (UT-SCC-44 [3]; [15]): 1.55 nM
relative IC50 (UT-SCC-44 [3]; [17]): 1.52 nM
relative IC50 (UT-SCC-44 [3]; [19]): 1.46 nM
relative IC50 (UT-SCC-81 [4]; [16]): 6.59 nM
relative IC50 (UT-SCC-81 [4]; [19]): 7.02 nM
relative IC50 (UT-SCC-106A; [15]): 0.942 nM
relative IC50 (UT-SCC-106A; [17]): 1.25 nM
relative IC50 (UT-SCC-106A; [19]): 1.5 nM
relative IC50 (UT-SCC-42B; [15]): 1.71 nM
relative IC50 (UT-SCC-42B; [17]): 5.67 nM
relative IC50 (UT-SCC-42B; [18]): 12.5 nM
relative IC50 (UT-SCC-73 [5]; [15]): 2.42 nM
relative IC50 (UT-SCC-73 [5]; [18]): 3.31 nM
relative IC50 (UT-SCC-28 [6]): 1.42 nM
relative IC50 (UT-SCC-8 [7]): 11.3 nM
relative IC50 (UT-SCC-14; [15]): 3.5 nM
relative IC50 (UT-SCC-14; [17]): 7.96 nM
relative IC50 (UT-SCC-14; [19]): 17.5 nM
relative IC50 (UT-SCC-42A): 3.65 nM
Structure (SMILES): CC(=O)Nc1cccc(-n2c(=O)n(C3CC3)c(=O)c3c(Nc4ccc(I)cc4F)n(C)c(=O)c(C)c32)c1 [Trametinib]
drug sensitivity score (UT-SCC-24B [8]; [15]): 11 ± 1 DSS
drug sensitivity score (UT-SCC-24B [8]; [16]): 10.3 ± 2.3 DSS
drug sensitivity score (UT-SCC-24B [8]; [17]): 10.1 ± 1.1 DSS
drug sensitivity score (UT-SCC-24B [8]; [18]): 6.67 ± 1.4 DSS
drug sensitivity score (UT-SCC-24B [8]; [19]): 13.8 ± 0.95 DSS
drug sensitivity score (UT-SCC-40 [9]; [15]): 18.4 ± 4.2 DSS
drug sensitivity score (UT-SCC-40 [9]; [16]): 13.4 ± 2.6 DSS
drug sensitivity score (UT-SCC-40 [9]; [17]): 15.7 ± 2.8 DSS
drug sensitivity score (UT-SCC-40 [9]; [18]): 10.9 ± 1.8 DSS
drug sensitivity score (UT-SCC-40 [9]; [19]): 11.3 ± 3.5 DSS
drug sensitivity score (UT-SCC-44 [10]; [15]): 18.2 ± 0.7 DSS
drug sensitivity score (UT-SCC-44 [10]; [16]): 4.27 ± 1.7 DSS
drug sensitivity score (UT-SCC-44 [10]; [17]): 12.5 ± 1.8 DSS
drug sensitivity score (UT-SCC-44 [10]; [18]): 5.07 ± 3.6 DSS
drug sensitivity score (UT-SCC-44 [10]; [19]): 10.2 ± 1.6 DSS
drug sensitivity score (UT-SCC-81 [11]; [15]): 31.1 ± 6 DSS
drug sensitivity score (UT-SCC-81 [11]; [16]): 3.93 ± 0.58 DSS
drug sensitivity score (UT-SCC-81 [11]; [17]): 18.2 ± 2.1 DSS
drug sensitivity score (UT-SCC-81 [11]; [18]): 4.77 ± 4 DSS
drug sensitivity score (UT-SCC-81 [11]; [19]): 7.57 ± 2.1 DSS
drug sensitivity score (UT-SCC-73 [12]; [15]): 19.8 ± 3.1 DSS
drug sensitivity score (UT-SCC-73 [12]; [16]): 15.4 ± 3.3 DSS
drug sensitivity score (UT-SCC-73 [12]; [17]): 18.7 ± 3.7 DSS
drug sensitivity score (UT-SCC-73 [12]; [18]): 14.6 ± 1.9 DSS
drug sensitivity score (UT-SCC-73 [12]; [19]): 16.1 ± 3.1 DSS
drug sensitivity score (UT-SCC-28 [13]; [15]): 5.9 ± 1.1 DSS
drug sensitivity score (UT-SCC-28 [13]; [16]): 3.83 ± 3.9 DSS
drug sensitivity score (UT-SCC-28 [13]; [17]): 7.33 ± 3.5 DSS
drug sensitivity score (UT-SCC-28 [13]; [19]): 4.33 ± 1.3 DSS
drug sensitivity score (UT-SCC-8 [14]; [15]): 9.37 ± 3.3 DSS
drug sensitivity score (UT-SCC-8 [14]; [16]): 3.9 ± 6.8 DSS
drug sensitivity score (UT-SCC-8 [14]; [17]): 6.63 ± 5 DSS
drug sensitivity score (UT-SCC-8 [14]; [18]): 4.7 ± 4 DSS
drug sensitivity score (UT-SCC-8 [14]; [19]): 4.93 ± 4 DSS
maximal % inhibition of viability (UT-SCC-24A; [15]): 74.7 ± 4%
maximal % inhibition of viability (UT-SCC-24A; [16]): 48.6 ± 6.4%
maximal % inhibition of viability (UT-SCC-24A; [17]): 69.5 ± 5.2%
maximal % inhibition of viability (UT-SCC-24A; [18]): 33.1 ± 9.5%
maximal % inhibition of viability (UT-SCC-24A; [19]): 62.4 ± 10%
